Data from BindingDB's records for doi:10.7270/Q2D798VP (Broad Institute, 2009).
Counter-ions that a name gives are not always drawn.

Biological target: T1, Zinc finger protein mex-5 (Caenorhabditis elegans, UniProt Q9XUB2)
T1 sequence (Q9XUB2 whole entry): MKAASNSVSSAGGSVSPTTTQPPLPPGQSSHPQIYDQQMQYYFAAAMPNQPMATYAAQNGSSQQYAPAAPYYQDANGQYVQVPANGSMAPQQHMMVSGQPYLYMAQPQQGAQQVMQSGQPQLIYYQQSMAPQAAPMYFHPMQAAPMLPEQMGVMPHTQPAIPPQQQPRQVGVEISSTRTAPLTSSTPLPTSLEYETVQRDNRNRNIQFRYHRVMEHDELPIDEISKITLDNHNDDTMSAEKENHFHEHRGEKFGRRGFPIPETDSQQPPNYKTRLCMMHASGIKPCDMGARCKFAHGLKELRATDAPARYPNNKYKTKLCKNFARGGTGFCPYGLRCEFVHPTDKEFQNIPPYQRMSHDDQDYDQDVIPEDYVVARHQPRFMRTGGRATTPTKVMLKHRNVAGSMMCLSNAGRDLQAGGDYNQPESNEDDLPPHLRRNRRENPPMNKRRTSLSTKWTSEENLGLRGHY
Assay: potency of MEX-5 RNA-binding blockers – biochemical, C. elegans, fluorescence polarization, dose response (AID 1960)

Structure (SMILES)	EC50 [µM]
COc1cc(C2NC(=S)N=C(C)C2C(=O)OC(C)C)ccc1OC(C)C (stereo unspecified) [4-(3-methoxy-4-propan-2-yloxyphenyl)-6-methyl-2-sulfanylidene-3,4-dihydro-1H-pyrimidine-5-carboxylic acid propan-2-yl ester]	> 300
O=C(O)c1ccc(NN=CC2=C(N3CCOCC3)C(=Cc3ccccc3)CC2)cc1 [4-[2-[[(3Z)-2-(4-morpholinyl)-3-(phenylmethylene)-1-cyclopentenyl]methylidene]hydrazinyl]benzoic acid]	109
CC(=O)C1C(c2ccccc2)=NC(=O)NC1c1ccc(O)c(O)c1 (stereo unspecified) [4-[3,4-bis(oxidanyl)phenyl]-5-ethanoyl-6-phenyl-3,4-dihydro-1H-pyrimidin-2-one]	43.4
Cc1ccc(-c2c(CCC(C)N=O)oc3ccc(Cl)cc23)o1 (stereo unspecified) [4-[5-chloro-3-(5-methyl-2-furanyl)-2-benzofuranyl]-2-butanone oxime]	> 300
Cc1nnc(SC(=Cc2ccc(OCc3ccc(C(=O)O)cc3)cc2)C(=O)O)[nH]1 [4-[[4-[(E)-2-[(5-methyl-1H-1,2,4-triazol-3-yl)sulfanyl]-3-oxidanyl-3-oxidanylidene-prop-1-enyl]phenoxy]methyl]benzoic acid]	3.38
COc1cc(S(=O)(=O)Nc2ccc(C)cc2)ccc1NC=C1C(=O)N(C)C(=O)C(C#N)=C1C [4-[[(Z)-(5-cyano-1,4-dimethyl-2,6-dioxopyridin-3-ylidene)methyl]amino]-3-methoxy-N-(4-methylphenyl)benzenesulfonamide]	23.9
CC1(C)CC(=O)C2=C(C1)OC(=N)C(C#N)C2c1ccc(OC(=O)N2CCOCC2)cc1 (stereo unspecified) [4-morpholinecarboxylic acid [4-(2-amino-3-cyano-7,7-dimethyl-5-oxo-6,8-dihydro-4H-1-benzopyran-4-yl)phenyl] ester]	> 300
Cc1cc(CN=Nc2ccc([N+](=O)[O-])cn2)c(C)n1-c1ccc(C(=O)O)cc1 [4-{2,5-dimethyl-3-[2-(5-nitro-2-pyridinyl)carbonohydrazonoyl]-1H-pyrrol-1-yl}benzoic acid]	111
Cc1sc2ncnc(N=NC(C)c3ccccn3)c2c1C (stereo unspecified) [5,6-dimethyl-N-(1-pyridin-2-ylethylideneamino)thieno[2,3-d]pyrimidin-4-amine]	46.7
Fc1ccc(C2=Nc3ncnn3C(c3ccco3)C2)cc1 (stereo unspecified) [5-(4-fluorophenyl)-7-(2-furanyl)-1,7-dihydro-[1,2,4]triazolo[1,5-a]pyrimidine]	12.8
NC(=NNC=c1ccc(=C2C=CC(=O)C(C(=O)O)=C2)o1)N[N+](=O)[O-] [5-(5-{2-[amino(nitroimino)methyl]carbonohydrazonoyl}-2-furyl)-2-hydroxybenzoic acid]	26.1
c1ccc(C2=Nc3nnnn3C(c3cccs3)C2)cc1 (stereo unspecified) [5-Phenyl-7-thiophen-2-yl-4,7-dihydro-tetrazolo[1,5-a]pyrimidine]	> 300
COc1cc(CN=Nc2[nH]c(=O)nnc2C)ccc1O [5-[2-[(E)-(3-methoxy-4-oxocyclohexa-2,5-dien-1-ylidene)methyl]hydrazinyl]-6-methyl-2H-1,2,4-triazin-3-one]	31.1
Cc1cc(C=NNC(=O)c2cccc(N(C)C)c2)c(C)n1-c1cc(C(=O)O)cc(C(=O)O)c1 [5-[3-((E)-{[3-(dimethylamino)benzoyl]hydrazono}methyl)-2,5-dimethyl-1H-pyrrol-1-yl]isophthalic acid]	143
COC1=CC(CN=Nc2[nH]c(=O)nnc2C)C=C([N+](=O)[O-])C1=O (stereo unspecified) [5-[[(E)-(3-methoxy-5-nitro-4-oxo-1-cyclohexa-2,5-dienylidene)methyl]hydrazo]-6-methyl-2H-1,2,4-triazin-3-one]	10.8
O=C1N=c2ccc(Br)cc2=C1NNc1nnn[nH]1 [5-bromanyl-3-[2-(2H-1,2,3,4-tetrazol-5-yl)hydrazinyl]indol-2-one]	5.18
Cc1ncc(C=O)c(CNNC(=O)c2cc(Br)ccc2O)c1O [5-bromanyl-N'-[(Z)-[5-(hydroxymethyl)-2-methyl-3-oxidanylidene-pyridin-4-ylidene]methyl]-2-oxidanyl-benzohydrazide]	5.72
Cc1cccc(NNC2=c3cc(Br)ccc3=NC2=O)c1 [5-bromo-3-[2-(3-methylphenyl)hydrazinyl]indol-2-one]	26.9
O=C(NN=Cc1c(O)ccc2ccccc12)c1cncc(Br)c1 [5-bromo-N'-[(Z)-(2-oxo-1-naphthalenylidene)methyl]-3-pyridinecarbohydrazide]	256
Cc1ccc(N/N=C2/C(=O)Nc3ccc(F)cc32)cc1 [5-fluoro-3-[2-(4-methylphenyl)hydrazono]indolin-2-one]	> 300
COc1cccc(C2C3CN(C)CCC3=C(C#N)C(=N)C2(C#N)C#N)c1OC (stereo unspecified) [6-Amino-8-(2,3-dimethoxy-phenyl)-2-methyl-2,3,8,8a-tetrahydro-1H-isoquinoline-5,7,7-tricarbonitrile]	8.49

Structure (SMILES)	EC50 [µM]
CCCN1CCC2=C(C#N)C(=N)C(C#N)(C#N)C(c3cc(OC)ccc3OC)C2C1 (stereo unspecified) [6-Amino-8-(2,5-dimethoxy-phenyl)-2-propyl-2,3,8,8a-tetrahydro-1H-isoquinoline-5,7,7-tricarbonitrile]	25.5
N#CC1=C2CCOCC2C(c2cccnc2)C(C#N)(C#N)C1=N (stereo unspecified) [6-Amino-8-pyridin-3-yl-8,8a-dihydro-1H,3H-isochromene-5,7,7-tricarbonitrile]	> 300
O=C(Cc1nc2cc([N+](=O)[O-])ccc2[nH]c1=O)c1ccccc1 [6-Nitro-3-(2-oxo-2-phenyl-ethylidene)-3,4-dihydro-1H-quinoxalin-2-one]	> 300
CN1CCC2=C(C#N)C(=N)C(C#N)(C#N)C(c3ccncc3)C2C1 (stereo unspecified) [6-amino-2-methyl-8-(4-pyridyl)-1,3,8,8a-tetrahydroisoquinoline-5,7,7-tricarbonitrile]	7.73
CCOC(=O)C1=C(C)OC(=N)C(C#N)C1c1ccc(O)c(OC)c1 (stereo unspecified) [6-amino-5-cyano-4-(4-hydroxy-3-methoxyphenyl)-2-methyl-4H-pyran-3-carboxylic acid ethyl ester]	> 300
CN1CCC2=C(C#N)C(=N)C(C#N)(C#N)C(c3cccc(Cl)c3Cl)C2C1 (stereo unspecified) [6-azanyl-8-[2,3-bis(chloranyl)phenyl]-2-methyl-1,3,8,8a-tetrahydroisoquinoline-5,7,7-tricarbonitrile]	13.5
O=NC1CC2(CC(N=O)C1N=O)OCCO2 (stereo unspecified) [9-(hydroxyamino)-8-nitroso-1,4-dioxaspiro[4.5]dec-8-en-7-one oxime]	13
Cc1ccc(N=CC2Sc3ccccc3NC2=O)cc1 (stereo unspecified) [(2E)-2-(p-toluidinomethylene)-4H-1,4-benzothiazin-3-one]	> 300
CN(C)[C@@H]1C(=O)C(C(N)=O)C(=O)[C@@]2(O)C(=O)C3C(=O)c4c(O)cccc4[C@@](C)(O)[C@H]3[C@H](O)[C@@H]12 (stereo partly drawn) [(2E,4S,4aR,5S,5aR,6S,12aS)-2-[azanyl(oxidanyl)methylidene]-4-(dimethylamino)-6-methyl-5,6,10,11,12a-pentakis(oxidanyl)-4,4a,5,5a-tetrahydrotetracene-1,3,12-trione]	29.9
COc1ccc(C=C2CCCC(C(=O)C(F)(F)F)C2=O)cc1OC (stereo unspecified) [(2E,6Z)-2-(3,4-dimethoxybenzylidene)-6-(2,2,2-trifluoro-1-hydroxyethylidene)cyclohexanone]	254
CN(C)c1ccc(O)c2c1CC1CC3C(N(C)C)C(=O)C(C(N)=O)C(=O)[C@@]3(O)C(=O)C1C2=O (stereo partly drawn) [(2E,12aS)-2-[azanyl(oxidanyl)methylidene]-4,7-bis(dimethylamino)-10,11,12a-tris(oxidanyl)-4a,5,5a,6-tetrahydro-4H-tetracene-1,3,12-trione;hydrochloride]	37
COc1ccc(N=C(C)c2sc3ccccc3c2O)cc1 [(2Z)-2-[1-(4-methoxyanilino)ethylidene]-1-benzothiophen-3-one]	17.7
N#CC(C(=O)c1cc2ccccc2o1)c1nc2ccccc2s1 (stereo unspecified) [(2Z)-3-(1-benzofuran-2-yl)-2-(3H-1,3-benzothiazol-2-ylidene)-3-oxidanylidene-propanenitrile]	> 300
C=c1cc(O)c(CN(C)C)c2oc(=Cc3ccco3)c(O)c12 [(2Z)-7-[(dimethylamino)methyl]-2-(furan-2-ylmethylidene)-6-hydroxy-4-methyl-1-benzofuran-3-one]	39.8
C[C@H]1c2cccc(O)c2C(=O)C2C(=O)[C@]3(O)C(=O)C(C(N)=O)C(=O)[C@@H](N(C)C)C3C(O)C21 (stereo partly drawn) [(2Z,4S,5S,6R,12aS)-2-[amino(hydroxy)methylidene]-4-(dimethylamino)-5,10,11,12a-tetrahydroxy-6-methyl-4a,5,5a,6-tetrahydro-4H-tetracene-1,3,12-trione;ethanol;hydrate;hydrochloride]	45.3
Cn1c2cc(=N)ccc-2c2ccc(N)cc2c1-c1ccccc1 [(3-amino-5-methyl-6-phenyl-phenanthridin-5-ium-8-yl)amine;bromide]	5.36
O=C1N=c2ccccc2=C1NNc1cccc(Cl)c1 [(3E)-1H-indole-2,3-dione 3-[(3-chlorophenyl)hydrazone]]	45.4
Cc1ccc2oc(=O)c(CC(=O)CC(C)C)nc2c1 [(3Z)-3-(2-keto-4-methyl-pentylidene)-6-methyl-4H-1,4-benzoxazin-2-one]	> 300
COc1ccc(C(=O)CC2=NCC3c4ccccc4CCN3C2=O)cc1 (stereo unspecified) [(3Z)-3-[2-(4-methoxyphenyl)-2-oxidanylidene-ethylidene]-2,6,7,11b-tetrahydro-1H-pyrazino[2,1-a]isoquinolin-4-one]	> 300
Cc1ccc(C(=O)Cc2nc3ccccc3oc2=O)cc1 [(3Z)-3-[2-(4-methylphenyl)-2-oxidanylidene-ethylidene]-4H-1,4-benzoxazin-2-one]	> 300
